Where two headings read alike, the source gives them in different places.
Tests used:
[1] = system: Mycosphaerella graminicola; Anamorph: Septoria tritici; Bayer Code SEPTTR; experiment: Leaf blotch of wheat, foliar fungicide treatment, one day protectant (1DP) or three day curative (3DC); format: in vivo, Septoria tritici on wheat plants (variety Yuma); settings: Zymoseptoria tritici; for pest or weed control at 50 ppm / pest or weed control at 200 ppm: % disease control rating
[2] = system: Venturia inaequalis; Bayer Code VENTIN; experiment: Apple scab; format: in vivo; settings: 24 h, % disease control rating, one day protectant; for pest or weed control at 25 ppm: read-out: VENTIN 1 DP 25 ppm; for pest or weed control at 75 ppm: read-out: VENTIN 1 DP 75 ppm
[3] = system: Cercospora beticola; Bayer Code CERCBE; experiment: Leaf spot of sugar beets; format: in vivo, Cercospora beticola on sugar beets (variety HH-88); settings: 24 h, % disease control rating, one day protectant; for pest or weed control at 25 ppm: read-out: CERCBE 1 DP 25 ppm; for pest or weed control at 75 ppm: read-out: CERCBE 1 DP 75 ppm
[4] = 24 h, one day protectant (1DP), 25 ppm, rating of percent disease control, read-out: SETTTR 1DP 25 ppm
[5] = 24 h, one day protectant (1DP), rating of percent disease control, read-out: SEPTTR 1DP 100 ppm
[6] = 72 h, three day curative (3DC), 25 ppm, rating of percent disease control, read-out: SEPTTR 3DC 25 ppm
[7] = 72 h, three day curative (3DC), rating of percent disease control, read-out: SEPTTR 3DC 100 ppm
[8] = 24 h, one day protectant (1DP), 25 ppm, percent disease control rating, read-out: SETTTR 1DP 25 ppm
[9] = 24 h, one day protectant (1DP), percent disease control rating, read-out: SEPTTR 1DP 100 ppm
[10] = 72 h, three day curative (3DC), 25 ppm, percent disease control rating, read-out: SEPTTR 3DC 25 ppm
[11] = 72 h, three day curative (3DC), percent disease control rating, read-out: SEPTTR 3DC 100 ppm
[12] = 24 h, one day protectant (1DP), 25 ppm (first 1DP column), percent control rating, read-out: SETTTR 1DP 25 ppm
[13] = 24 h, one day protectant (1DP), 25 ppm as printed (second 1DP column), percent control rating, read-out: SETTTR 1DP 25 ppm
[14] = 72 h, three day curative (3DC), 25 ppm, percent control rating, read-out: SEPTTR 3DC 25 ppm
[15] = 72 h, three day curative (3DC), percent control rating, read-out: SEPTTR 3DC 100 ppm

| SMILES | pest or weed control at 25 ppm [2] [%] | pest or weed control at 75 ppm [2] [%] | pest or weed control at 25 ppm [1, 4] [%] | pest or weed control at 100 ppm [1, 5] [%] | pest or weed control at 25 ppm [1, 6] [%] | pest or weed control at 100 ppm [1, 7] [%] | other results |
| --- | --- | --- | --- | --- | --- | --- | --- |
| Fc1cnc(OC2CCCCC2)nc1N1CCOCC1 [Compound 941] | 51 to 75 | 26 to 50 |  |  |  |  | pest or weed control at 50 ppm ([1]; 24 h, one day protectant): 0 to 25%; pest or weed control at 200 ppm ([1]; 24 h, one day protectant): 0 to 25%; pest or weed control at 25 ppm [3]: 0 to 25%; pest or weed control at 75 ppm [3]: 0 to 25% |
| COc1ccc(COc2ncc(F)c(N)n2)cc1 [Compound 734] | 76 to 100 | 76 to 100 | 76 to 100 | 76 to 100 | 76 to 100 | 76 to 100 |  |
| Nc1nc(OCc2cc3ccccc3s2)ncc1F [Compound 345] | 51 to 75 | 76 to 100 | 76 to 100 | 76 to 100 | 76 to 100 | 76 to 100 |  |
| Nc1nc(OCc2cccc(F)c2)ncc1F [Compound 236] | 76 to 100 | 76 to 100 | 76 to 100 | 76 to 100 | 76 to 100 | 76 to 100 |  |
| Nc1nc(OCc2ccccc2)ncc1F [Compound 46] | 76 to 100 | 76 to 100 |  |  |  |  | pest or weed control at 25 ppm [1, 8]: 76 to 100%; pest or weed control at 100 ppm [1, 9]: 76 to 100%; pest or weed control at 25 ppm [1, 10]: 76 to 100%; pest or weed control at 100 ppm [1, 11]: 76 to 100% |
| Cc1ccc(COc2ncc(F)c(/N=C/N(C)C)n2)cc1 [Compound 469] | 51 to 75 | 76 to 100 | 76 to 100 | 76 to 100 | 76 to 100 | 76 to 100 |  |
| CN(C)/C=N/c1nc(OCc2ccccc2)ncc1F [Compound 209] | 51 to 75 | 76 to 100 | 76 to 100 | 76 to 100 | 76 to 100 | 76 to 100 |  |
| COc1cccc(COc2ncc(F)c(N)n2)c1 [Compound 35] | 76 to 100 | 76 to 100 |  |  |  |  | pest or weed control at 25 ppm [1, 8]: 76 to 100%; pest or weed control at 100 ppm [1, 9]: 76 to 100%; pest or weed control at 25 ppm [1, 10]: 76 to 100%; pest or weed control at 100 ppm [1, 11]: 76 to 100% |
| Cc1cc(C)c(COc2ncc(F)c(/N=C/N(C)C)n2)c(C)c1 [Compound 347] | 76 to 100 | 26 to 50 | 76 to 100 | 76 to 100 | 76 to 100 | 76 to 100 |  |
| CCOC(=O)COc1ncc(F)c(N)n1 [Compound 221] | 0 to 25 | 26 to 50 |  |  |  |  | pest or weed control at 25 ppm [3]: 26 to 50%; pest or weed control at 75 ppm [3]: 51 to 75% |
| Cc1cc(C)c(COc2ncc(F)c(N)n2)c(C)c1 [Compound 510] | 76 to 100 | 76 to 100 | 51 to 75 | 76 to 100 | 51 to 75 | 76 to 100 |  |
| CN(C)/C=N/c1nc(OCc2ccc(F)cc2)ncc1F [Compound 20, N-[5-Fluoro-2-(4-fluorobenzyloxy)pyrimidin-4-yl]-N,N dimethyl-formamidine] | 51 to 75 | 76 to 100 |  |  |  |  | pest or weed control at 25 ppm [1, 8]: 76 to 100%; pest or weed control at 100 ppm [1, 9]: 76 to 100%; pest or weed control at 25 ppm [1, 10]: 76 to 100%; pest or weed control at 100 ppm [1, 11]: 76 to 100% |
| Nc1nc(OCc2cccs2)ncc1F [Compound 5, 5-Fluoro-2-(thiophen-2-ylmethoxy)-pyrimidin-4-ylamine] | 76 to 100 | 76 to 100 |  |  |  |  | pest or weed control at 25 ppm [1, 8]: 76 to 100%; pest or weed control at 100 ppm [1, 9]: 76 to 100%; pest or weed control at 25 ppm [1, 10]: 76 to 100%; pest or weed control at 100 ppm [1, 11]: 76 to 100% |
| Cc1ccccc1C(C)Oc1ncc(F)c(N)n1 (centres unmarked) [Compound 313] | 26 to 50 | 51 to 75 | 76 to 100 | 76 to 100 | 76 to 100 | 76 to 100 |  |
| CC(Oc1ncc(F)c(N)n1)c1ccc(F)cc1 (centres unmarked) [Compound 3, 5-Fluoro-2-[1-(4-fluorophenyl)ethoxy]pyrimidin-4-ylamine] | 0 to 25 | 76 to 100 |  |  |  |  | pest or weed control at 25 ppm [1, 8]: 76 to 100%; pest or weed control at 100 ppm [1, 9]: 76 to 100%; pest or weed control at 25 ppm [1, 10]: 76 to 100%; pest or weed control at 100 ppm [1, 11]: 76 to 100% |
| COc1cccc(COc2ncc(F)c(NS(C)(=O)=O)n2)c1 [Compound 1011] |  |  |  |  |  |  | pest or weed control at 25 ppm [1, 12]: 0 to 25%; pest or weed control at 25 ppm [1, 13]: 0 to 25%; pest or weed control at 25 ppm [1, 14]: 0 to 25%; pest or weed control at 100 ppm [1, 15]: 0 to 25% |
| CN(C)/C=N/c1nc(OC(=O)OCc2ccccc2)ncc1F [Compound 112] |  |  |  |  |  |  | pest or weed control at 25 ppm [1, 8]: 76 to 100%; pest or weed control at 100 ppm [1, 9]: 76 to 100%; pest or weed control at 25 ppm [1, 10]: 76 to 100%; pest or weed control at 100 ppm [1, 11]: 76 to 100% |
| CN(C)/C=N/c1nc(OC(=O)C(C)(C)C)ncc1F [Compound 130] |  |  |  |  |  |  | pest or weed control at 25 ppm [1, 8]: 76 to 100%; pest or weed control at 100 ppm [1, 9]: 76 to 100%; pest or weed control at 25 ppm [1, 10]: 76 to 100%; pest or weed control at 100 ppm [1, 11]: 76 to 100% |
| Fc1ccc(COc2ncc(F)c(NCc3cccs3)n2)cc1F [Compound 890] |  |  |  |  |  |  | pest or weed control at 200 ppm ([1]; 24 h, one day protectant): 76 to 100% |
| C/C(=N\Oc1ncc(F)c(/N=C/N(C)C)n1)c1ccccc1 [Compound 427] |  |  | 76 to 100 | 76 to 100 | 76 to 100 | 76 to 100 |  |
| Fc1cnc(OCc2ccccc2)nc1NNc1ccc(Br)cc1 [Compound 1035] |  |  |  |  |  |  | pest or weed control at 25 ppm [1, 12]: 0 to 25%; pest or weed control at 25 ppm [1, 13]: 0 to 25%; pest or weed control at 25 ppm [1, 14]: 0 to 25%; pest or weed control at 100 ppm [1, 15]: 0 to 25% |
| COc1ncc(F)c(N/N=C/c2cc(C)nn2C)n1 [Compound 1020] |  |  |  |  |  |  | pest or weed control at 25 ppm [1, 12]: 0 to 25%; pest or weed control at 25 ppm [1, 13]: 0 to 25%; pest or weed control at 25 ppm [1, 14]: 26 to 50%; pest or weed control at 100 ppm [1, 15]: 0 to 25% |
| Cc1csc(COc2ncc(F)c(N)n2)c1 [Compound 577] |  |  |  |  |  |  | pest or weed control at 25 ppm ([1]; 24 h, one day protectant, 25 ppm, rating of percent disease control, read-out: SETTTR 1DP 25 ppm): 76 to 100%; pest or weed control at 100 ppm ([1]; 24 h, one day protectant, rating of percent disease control, read-out: SEPTTR 1DP 100 ppm): 76 to 100%; pest or weed control at 25 ppm ([1]; 72 h, three day curative, 25 ppm, rating of percent disease control, read-out: SEPTTR 3DC 25 ppm): 76 to 100%; pest or weed control at 100 ppm ([1]; 72 h, three day curative, rating of percent disease control, read-out: SEPTTR 3DC 100 ppm): 76 to 100% |
| O=C(Nc1nc(O)ncc1F)c1ccsc1 [Compound 979] |  |  |  |  |  |  | pest or weed control at 25 ppm [1, 12]: 0 to 25%; pest or weed control at 25 ppm [1, 13]: 26 to 50%; pest or weed control at 25 ppm [1, 14]: 0 to 25%; pest or weed control at 100 ppm [1, 15]: 51 to 75% |
| Fc1cccc(COc2ncc(F)c(NCc3ccc(Cl)cc3)n2)c1 [Compound 820] |  |  |  |  |  |  | pest or weed control at 50 ppm ([1]; 24 h, one day protectant): 26 to 50%; pest or weed control at 200 ppm ([1]; 24 h, one day protectant): 76 to 100% |
| Fc1cccc(COc2ncc(F)c(NCc3ccccc3F)n2)c1 [Compound 824] |  |  |  |  |  |  | pest or weed control at 50 ppm ([1]; 24 h, one day protectant): 76 to 100%; pest or weed control at 200 ppm ([1]; 24 h, one day protectant): 76 to 100% |

— US9204653B2, “5-fluoro pyrimidine derivatives” (DOW AGROSCIENCES LLC, priority 2008, dated 2015)
